Data reported in patent publication US20110201628A1, “HETEROCYCLIC JAK KINASE INHIBITORS” (priority 2008, published 2011).

biological target: T1, C-terminal His6-tagged, recombinant, human JAK2, amino acids 808-end (Homo sapiens, UniProt O60674); test: JAK2 kinase Alphascreen assay (Method 1); type: biochemical; conditions: Alphascreen, 150 pM JAK2 enzyme, 5 mM ATP, 80 nM Tyk2 peptide, 60 minutes room temperature; read-out: IC50 Assay (Method 1)
T1 construct: His6 (C); purchased Upstate Biotechnology MA; host or cells: baculovirus in Sf21 cells
T1 sequence (O60674 808-1132 limits assumed): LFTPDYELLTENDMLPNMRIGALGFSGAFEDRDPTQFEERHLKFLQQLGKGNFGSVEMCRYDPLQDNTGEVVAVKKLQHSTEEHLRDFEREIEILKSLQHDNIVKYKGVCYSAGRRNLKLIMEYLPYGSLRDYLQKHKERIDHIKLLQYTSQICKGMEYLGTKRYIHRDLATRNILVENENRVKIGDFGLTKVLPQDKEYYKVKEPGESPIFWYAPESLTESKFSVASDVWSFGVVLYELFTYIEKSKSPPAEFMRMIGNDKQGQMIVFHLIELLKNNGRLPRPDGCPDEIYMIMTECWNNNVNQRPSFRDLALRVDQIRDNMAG
Description: To measure JAK2 kinase activity, a commercially available purified enzyme may be used. […] After incubation of the kinase with a biotinylated substrate and adenosine triphosphate (ATP) for 60 minutes at room temperature, the kinase reaction may be stopped by the addition of 30 mM ethylenediaminetetraacetic acid (EDTA). The reaction may be performed in 384 well microtitre plates and the reaction products may be detected with the addition of streptavidin coated Donor Beads and phosphotyrosine-specific antibodies coated Acceptor Beads using the EnVision Multilabel Plate Reader after an overnight incubation at room temperature. “Tween 20” is a registered trademark of ICI Americas, Inc.

IC50 [µM] | Structure (SMILES)
0.004 | COc1ccc2c(Nc3cn(C)cn3)nc(N[C@@H](C)c3ncc(F)cn3)nc2c1 [Example 30, N^2-[(1S)-1-(5-Fluoropyrimidin-2-yl)ethyl]-7-methoxy-N^4-(1-methyl-1H-imidazol-4-yl)quinazoline-2,4-diamine]
< 0.003 | CC(Nc1nc(Nc2cn(C)cn2)c2cnn(C)c2n1)c1ncc(F)cc1F (single isomer, unassigned) [Example 14(b), N^6-[1-(3,5-Difluoropyridin-2-yl)ethyl]-1-methyl-N^4-(1-methyl-1H-imidazol-4-yl)-1H-pyrazolo[3,4-d]pyrimidine-4,6-diamine]
20 | CC(Nc1nc2c(c(Nc3cn(C)cn3)n1)CCC2)c1ncc(F)cn1 (single isomer, unassigned) [Example 8(a), N^2-[1-(5-Fluoropyrimidin-2-yl)ethyl]-N^4-(1-methyl-1H-imidazol-4-yl)-6,7-dihydro-5H-cyclopenta[d]pyrimidine-2,4-diamine]
0.22 | CC(Nc1nc2c(c(Nc3cn(C)cn3)n1)CNCC2)c1ncc(F)cn1 (single isomer, unassigned) [17(a), N^2-[1-(5-Fluoropyrimidin-2-yl)ethyl]-N^4-(1-methyl-1H-imidazol-4-yl)-5,6,7,8-tetrahydropyrido[4,3-d]pyrimidine-2,4-diamine]
0.016 | C[C@H](Nc1nc2c(c(Nc3cn(C)cn3)n1)CCC2)c1ncc(F)cn1 [Example 8, N^2-[(1S)-1-(5-Fluoropyrimidin-2-yl)ethyl]-N^4-(1-methyl-1H-imidazol-4-yl)-6,7-dihydro-5H-cyclopenta[d]pyrimidine-2,4-diamine]
21.6 | Cc1nc2c(Nc3cn(C)cn3)nc(NC(C)c3ncc(F)cn3)nc2s1 (single isomer, unassigned) [Example 7(b), N^5-[1-(5-Fluoropyrimidin-2-yl)ethyl]-2-methyl-N^7-(1-meth 1-1H-imidazol-4-yl)[1,3]thiazolo[5,4-d]pyrimidine-5,7-diamine]
< 0.003 | CC(Nc1nc(Nc2cn(C)cn2)c2ccc(N3CCOCC3)nc2n1)c1ncc(F)cc1F (single isomer, unassigned) [Example 40(b), N^2-[1-(3,5-Difluoropyridin-2-yl)ethyl]-N^4-(1-methyl-1H-imidazol-4-yl)-7-morpholin-4-ylpyrido[2,3-d]pyrimidine-2,4-diamine]
0.49 | CC(Nc1nc(Nc2cn(C)cn2)c2ccc(N3CCOCC3)nc2n1)c1ncc(F)cc1F (single isomer, unassigned) [Example 40(a), N^2-[1-(3,5-Difluoropyridin-2-yl)ethyl]-N^4-(1-methyl-1H-imidazol-4-yl)-7-morpholin-4-ylpyrido[2,3-d]pyrimidine-2,4-diamine]
< 0.003 | C[C@H](Nc1nc(Nc2cn(C)cn2)c2[nH]ccc2n1)c1ncc(F)cn1 [Example 6, N^2-[(1S)-1-(5-Fluoropyrimidin-2-yl)ethyl]-N^4-(1-methyl-1H-imidazol-4-yl)-5H-pyrrolo[3,2-d]pyrimidine-2,4-diamine]
0.45 | CC(Nc1nc2c(c(Nc3cn(C)cn3)n1)CNC2)c1ncc(F)cn1 (single isomer, unassigned) [Example 18(b), N^2-[1-(5-Fluoropyrimidin-2-yl)ethyl]-N^4-(1-methyl-1H-imidazol-4-yl)-6,7-dihydro-5H-pyrrolo[3,4-d]pyrimidine-2,4-diamine]
< 0.003 | CC(Nc1nc(Nc2cn(C)cn2)c2ccsc2n1)c1ncc(F)cn1 (single isomer, unassigned) [Example 1(b), N^2-[1-(5-Fluoropyrimidin-2-yl)ethyl]-N^4-(1-methyl-1H-imidazol-4-yl)thieno[2,3-d]pyrimidine-2,4-diamine]
0.5 | COc1ccc2nc(NC(C)c3ncc(F)cc3F)nc(Nc3cn(C)cn3)c2c1 (racemic) [Example 29, N^2-[1-(3,5-Difluoropyridin-2-yl)ethyl]-6-methoxy-N^4-(1-methyl-1H-imidazol-4-yl)quinazoline-2,4-diamine]
< 0.003 | C[C@H](Nc1nc(Nc2cn(C)cn2)c2ccccc2n1)c1ncc(F)cn1 [Example 45, N^2-[(1S)-1-(5-Fluoropyrimidin-2-yl)ethyl]-N^4-(1-methyl-1H-imidazol-4-yl)quinazoline-2,4-diamine]
< 0.003 | CC(Nc1nc(Nc2cn(C)cn2)c2cccnc2n1)c1ncc(F)cc1F (single isomer, unassigned) [Example 12(a), N^2-[1-(3,5-Difluoropyridin-2-yl)ethyl]-N^4-(1-methyl-1H-imidazol-4-yl)pyrido[2,3-d]pyrimidine-2,4-diamine]
6.4 | CC(Nc1nc(Nc2cn(C)cn2)c2cnn(C)c2n1)c1ncc(F)cn1 (single isomer, unassigned) [Example 11(a), N^6-[1-(5-Fluoropyrimidin-2-yl)ethyl]-1-methyl-N^4-(1-methyl-1H-imidazol-4-yl)-1H-pyrazolo[3,4-d]pyrimidine-4,6-diamine]
1.9 | Cc1nc2c(Nc3cn(C)cn3)nc(N[C@@H](C)c3ncc(F)cn3)nc2s1 [Example 7, N^5-[(1S)-1-(5-Fluoropyrimidin-2-yl)ethyl]-2-methyl-N^7-(1-methyl-1H-imidazol-4-yl)[1,3]thiazolo[5,4-d]pyrimidine-5,7-diamine]
5.4 | CC(Nc1nc(Nc2cn(C)cn2)c2cnn(C)c2n1)c1ncc(F)cc1F (single isomer, unassigned) [Example 14(a), N^6-[1-(3,5-Difluoropyridin-2-yl)ethyl]-1-methyl-N^4-(1-methyl-1H-imidazol-4-yl)-1H-pyrazolo[3,4-d]pyrimidine-4,6-diamine]
< 0.003 | COCC(Nc1nc(Nc2cn(C)cn2)c2cnn(C)c2n1)c1ncc(F)cc1F (single isomer, unassigned) [Example 13(b), N^6-[1-(3,5-Difluoropyridin-2-yl)-2-methoxyethyl]-1-methyl-N^4-(1-methyl-1H-imidazol-4-yl)-1H-pyrazolo[3,4-d]pyrimidine-4,6-diamine]
0.003 | CC(Nc1nc(Nc2cn(C)cn2)c2ccc(Cl)nc2n1)c1ncc(F)cc1F (racemic) [Example 44, 7-Chloro-N^2-[1-(3,5-difluoropyridin-2-yl)ethyl]-N^4-(1-methyl-1H-imidazol-4-yl)pyrido[2,3-d]pyrimidine-2,4-diamine]
< 0.003 | CC(Nc1nc2c(c(Nc3cn(C)cn3)n1)CCC2)c1ncc(F)cn1 (single isomer, unassigned) [Example 8(b), N^2-[1-(5-Fluoropyrimidin-2-yl)ethyl]-N^4-(1-methyl-1H-imidazol-4-yl)-6,7-dihydro-5H-cyclopenta[d]pyrimidine-2,4-diamine]
4.3 | CC(Nc1nc2c(c(Nc3cn(C)cn3)n1)CNC2)c1ncc(F)cn1 (single isomer, unassigned) [Example 18(a), N^2-[1-(5-Fluoropyrimidin-2-yl)ethyl]-N^4-(1-methyl-1H-imidazol-4-yl)-6,7-dihydro-5H-pyrrolo[3,4-d]pyrimidine-2,4-diamine]
0.003 | C[C@H](Nc1nc(Nc2cn(C)cn2)c2cnn(CCO)c2n1)c1ncc(F)cn1 [Example 15, 2-(6-{[(1S)-1-(5-Fluoropyrimidin-2-yl)ethyl]amino}-4-[(1-methyl-1H-imidazol-4-yl)amino]-1H-pyrazolo[3,4-d]pyrimidin-1-yl)ethanol]
0.213 | Cc1ccc(S(=O)(=O)n2ccc3c(Nc4cn(C)cn4)nc(N[C@@H](C)c4ncc(F)cn4)nc32)cc1 [Example 3, N^2-[(1S)-1-(5-Fluoropyrimidin-2-yl)ethyl]-N^4-(1-methyl-1H-imidazol-4-yl)-7-[(4-methylphenyl)sulfonyl]-7H-pyrrolo[2,3-d]pyrimidine-2,4-diamine]
2 | CC(Nc1nc2c(c(Nc3cn(C)cn3)n1)CNCC2)c1ncc(F)cn1 (single isomer, unassigned) [17(b), N^2-[1-(5-Fluoropyrimidin-2-yl)ethyl]-N^4-(1-methyl-1H-imidazol-4-yl)-5,6,7,8-tetrahydropyrido[4,3-d]pyrimidine-2,4-diamine]
0.2 | CC(Nc1nc(Nc2cn(C)cn2)c2nccnc2n1)c1ncc(F)cn1 (single isomer, unassigned) [Example 10(b), N^2-[1-(5-Fluoropyrimidin-2-yl)ethyl]-N^4-(1-methyl-1H-imidazol-4-yl)pteridine-2,4-diamine]
0.003 | CC(Nc1nc(Nc2cn(C)cn2)c2ccc(O)nc2n1)c1ncc(F)cc1F (racemic) [Example 35, 2-{[1-(3,5-Difluoropyridin-2-yl)ethyl]amino}-4-[(1-methyl-1H-imidazol-4-yl)amino]pyrido[2,3-d]pyrimidin-7-ol]

Structure (SMILES) | IC50 [µM]
CC(Nc1nc(Nc2cn(C)cn2)c2ccccc2n1)c1ncc(F)cn1 (single isomer, unassigned) [Example 45(a), N^2-[1-(5-Fluoropyrimidin-2-yl)ethyl]-N^4-(1-methyl-1H-imidazol-4-yl)quinazoline-2,4-diamine] | 0.064
CC(Nc1nc(Nc2cn(C)cn2)c2ccccc2n1)c1ncc(F)cn1 (single isomer, unassigned) [Example 45(b), N^2-[1-(5-Fluoropyrimidin-2-yl)ethyl]-N^4-(1-methyl-1H-imidazol-4-yl)quinazoline-2,4-diamine] | 0.003
CC(Nc1nc(Nc2cn(C)cn2)c2cc(F)cnc2n1)c1ncc(F)cn1 (single isomer, unassigned) [Example 38(a), 6-Fluoro-N^2-[1-(5-fluoropyrimidin-2-yl)ethyl]-N^4-(1-methyl-1H-imidazol-4-yl)pyrido[2,3-d]pyrimidine-2,4-diamine] | 0.1
COc1ccc2nc(N[C@@H](C)c3ncc(F)cn3)nc(Nc3cn(C)cn3)c2c1 [Example 28, N^2-[(1S)-1-(5-Fluoropyrimidin-2-yl)ethyl]-6-methoxy-N^4-(1-methyl-1H-imidazol-4-yl)quinazoline-2,4-diamine] | 0.67
